Reference: article PMC7232442, “Biofilm Eradication by Symmetrical Selenoesters for Food-Borne Pathogens” (Microorganisms, 2020)
Converted amounts (≈) assume the structure as drawn. “And” between values parts separate entries of the source, which are not always exact repeats. Equal entries are not always repeated. Structures can show the parent of a compound that is named as a salt. Where two headings read alike, the source gives them in different places.

Legend:
[1] = tested on: S. aureus MRSA 272123; assay: MIC determination by microdilution method; assay type: cell-based; conditions: Staphylococcus aureus
Method: (§1) The minimum inhibitory concentrations (MICs) of compounds were determined according to the Clinical and Laboratory Standard Institute guidelines (CLSI). MIC values of the compounds were determined by visual inspection. The solvent was also assayed to ensure there was no antibacterial effect and the concentration (1 v/v%) applied in the assays had no antibacterial activity. DMSO was used at subinhibitory concentration (1 v/v%) in the assays.

[2] = tested on: Staphylococcus aureus ATCC 25923; assay: MIC determination by microdilution method; assay type: cell-based; conditions: S. aureus ATCC 25923
Method: as §1

[3] = tested on: S. Typhimurium SE01 Wild-Type; assay: Real-time ethidium bromide accumulation assay; assay type: cell-based, Salmonella enterica serovar Typhimurium; conditions: ½ MIC, minute 60
Method: (§2) The impact of compounds on EB accumulation was determined by the automated EB method using a CLARIOstar Plus plate reader (BMG Labtech, UK). Firstly, the bacterial strain was incubated until it reached an optical density (OD) of 0.6 at 600 nm. The culture was washed with phosphate buffered saline (PBS; pH 7.4) and centrifuged at 13,000× g for 3 min, the cell pellet was re-suspended in PBS. The compounds were added at ½ MIC concentration to PBS containing a non-toxic concentration of EB (1 µg/mL). Then, 50 μL of the EB solution containing the compound were transferred into 96-well black microtiter plate (Greiner Bio-One Hungary Kft, Hungary), and 50 μL of bacterial suspension (OD600 0.6) were added to the each well. Then, the plates were placed into the CLARIOstar plate reader, and the fluorescence was monitored at excitation and emission wavelengths of 530 nm and 600 nm every minute for one hour on a real-time basis. From the real-time data, the activity of the compounds, namely the relative fluorescence index (RFI) of the last time point (minute 60) of the EB accumulation assay, was calculated according to the following formula:RFI = (RFtreated − RFuntreated)/RFuntreated(2) where RFtreated is the relative fluorescence (RF) at the last time point of EB retention curve in the presence of an inhibitor, and RFuntreated is the RF at the last time point of the EB retention curve of the untreated control having the solvent control (DMSO).

[4] = tested on: S. Typhimurium SE02 ΔacrB; assay: Real-time ethidium bromide accumulation assay; assay type: cell-based, Salmonella enterica serovar Typhimurium; conditions: for Relative Fluorescence Index (RFI): S. Typhimurium SE02 ΔacrB, ½ MIC, minute 60
Method: as §2

[5] = tested on: S. Typhimurium SE03 ΔacrA; assay: Real-time ethidium bromide accumulation assay; assay type: cell-based, Salmonella enterica serovar Typhimurium; parameters: key to Relative Fluorescence Index (RFI): RFI = (RFtreated − RFuntreated)/RFuntreated at minute 60; conditions: for Relative Fluorescence Index (RFI): S. Typhimurium SE03 ΔacrA, ½ MIC, minute 60
Method: as §2

[6] = tested on: S. Typhimurium SE39 ΔtolC; assay: Real-time ethidium bromide accumulation assay; assay type: cell-based, Salmonella enterica serovar Typhimurium; parameters: key to Relative Fluorescence Index (RFI): RFI = (RFtreated − RFuntreated)/RFuntreated at minute 60; conditions: for Relative Fluorescence Index (RFI): S. Typhimurium SE39 ΔtolC, ½ MIC, minute 60; for Intracellular EB accumulation (in words): S. Typhimurium SE39, 60 min
Method: as §2

[7] = tested on: S. Typhimurium SE01 Wild-Type; assay: MIC determination by microdilution method; assay type: cell-based, Salmonella enterica serovar Typhimurium; conditions: Salmonella enterica
Method: as §1

[8] = tested on: MRC-5 human embryonal lung fibroblast cells; assay: Cytotoxicity assay (MTT); assay type: cell-based; conditions: MRC-5 cells
Method: The adherent MRC-5 human embryonal lung fibroblast cells were cultured in 96-well flat-bottomed microtiter plates, using EMEM supplemented with 10% heat-inactivated fetal bovine serum. The density of the cells was adjusted to 1 × 10^4 cells in 100 μL per well, the cells were seeded overnight at 37 °C, 5% CO2, then the medium was removed from the plates containing the cells, and the dilutions of selenocompounds previously made in a separate plate were added to the cells in 200 μL.
The culture plates were incubated at 37 °C for 24 h; at the end of the incubation period, 20 μL of MTT (thiazolyl blue tetrazolium bromide, Sigma) solution (from a stock solution of 5 mg/mL) was added to each well. After incubation at 37 °C for 4 h, 100 μL of sodium dodecyl sulfate (SDS; Sigma) solution (10% in 0.01 M HCI) was added to each well and the plates were further incubated at 37 °C overnight. Cell growth was determined by measuring the optical density (OD) at 540/630 nm with Multiscan EX ELISA reader (Thermo Labsystems, Cheshire, WA, USA). Inhibition of the cell growth was determined according to the formula below:IC50 = 100 − [(ODsample − ODmedium control)/(ODcell control − ODmedium control)] × 100(1)
Results are expressed in terms of IC50, defined as the inhibitory dose that reduces the growth of the cells exposed to the tested compounds by 50%.

[9] = tested on: S. aureus MRSA 272123; assay: Real-time ethidium bromide accumulation assay; assay type: cell-based, Staphylococcus aureus; conditions: for Relative Fluorescence Index (RFI): S. aureus MRSA 272123, ½ MIC, minute 60
Method: as §2

[10] = tested on: S. aureus ATCC 25923; assay: Real-time ethidium bromide accumulation assay; assay type: cell-based, Staphylococcus aureus; parameters: key to Relative Fluorescence Index (RFI): RFI = (RFtreated − RFuntreated)/RFuntreated at minute 60; conditions: for Relative Fluorescence Index (RFI): S. aureus ATCC 25923, ½ MIC, minute 60
Method: as §2

[11] = tested on: S. aureus MRSA; assay: Biofilm formation using crystal violet; assay type: cell-based, Staphylococcus aureus; conditions: for Biofilm inhibition: ½ MIC, 48 h
Method: The anti-biofilm effect of the tested compounds against S. aureus strains and wild-type S. Typhimurium SE01 was measured using crystal violet (CV; 0.1% (v/v)). This dye is used to detect the total biofilm biomass formed. Overnight cultures were diluted to OD of 0.1 at 600 nm in TSB medium. Then, the bacterial cultures were added to 96-well microtiter plates and the compounds were added at ½ MIC concentration. The final volume was 200 μL in each well. The microtiter plates were incubated at 30 °C for 48 h with gentle agitation (100 rpm). After the incubation period, TSB medium was discarded, and the plates were washed with tap water to remove unattached cells. Then 200 μL crystal violet was added to the wells and incubated for 15 min at room temperature. Then, CV was removed from the wells and the plates were washed again with tap water, and 200 μL of 70% ethanol was added to the wells. Finally, the biofilm formation was determined by measuring the OD at 600 nm using Multiscan EX ELISA plate reader (Thermo Labsystems, Cheshire, WA, USA). The anti-biofilm effect of compounds was expressed in the percentage (%) of decrease in biofilm formation.

[12] = tested on: S. Typhimurium SE02 ΔacrB; assay: MIC determination by microdilution method; assay type: cell-based, Salmonella enterica serovar Typhimurium; conditions: Salmonella enterica
Method: as §1

[13] = tested on: S. Typhimurium SE03 ΔacrA; assay: MIC determination by microdilution method; assay type: cell-based, Salmonella enterica serovar Typhimurium; conditions: Salmonella enterica
Method: as §1

[14] = tested on: S. aureus MRSA 272123; assay: Resistance modulation assay (checkerboard) with TET or CIP; assay type: cell-based, Staphylococcus aureus; conditions: S. aureus MRSA 272123; no selenocompound
Method: (§3) The resistance modulation effect of compounds with ciprofloxacin (CIP) and tetracycline (TET) antibiotics were evaluated by the checkerboard method on S. aureus strains. Briefly, CIP or TET was diluted in a 96-well microtiter plate by two-fold serial dilution in MH broth and then the compounds were added at subinhibitory concentrations (½ MIC). In this assay, only the tested compounds with well-defined MIC values were tested. Finally, 10^−4 dilution of the overnight bacterial culture in MH was added to each well. The final volume was 200 µL in each well. The microtiter plates were incubated at 37 °C for 18 h. MIC values in the presence of the antibiotics alone and in combination with Se-compounds were determined by visual inspection.

[15] = tested on: S. aureus ATCC 25923; assay: as above; assay type: cell-based, Staphylococcus aureus; conditions: S. aureus ATCC 25923; no selenocompound
Method: as §3

[16] = tested on: S. Typhimurium SE39 ΔtolC; assay: MIC determination by microdilution method; assay type: cell-based, Salmonella enterica serovar Typhimurium; conditions: Salmonella enterica
Method: as §1

[17] = tested on: C. violaceum 026 sensor strain with AHL producer E. cloacae 31298 (violacein production); assay: Quorum sensing (QS) inhibition, parallel inoculation disk diffusion; assay type: cell-based, Chromobacterium violaceum; conditions: disc with 10 μL compound, starting concentration ½ MIC; 24–48 h
Method: The QS inhibitory effect of selenocompounds was examined on the AHL producer E. cloacae strain and C. violaceum sensor bacterial strain. These strains were inoculated in parallel. The QS inhibition was monitored by agar diffusion method on LB* agar plate as described previously. Filter paper discs (7.0 mm in diameter) were placed between the parallel inoculated strains and impregnated with 10 μL compounds. Starting concentration of the compounds was ½ MIC. The agar plates were incubated at room temperature (20 °C) for 24–48 h and the inhibition of violacein production was measured.

[18] = S. aureus MRSA 272123, read-out: MIC
[19] = Staphylococcus aureus, ATCC25923
[20] = S. Typhimurium SE01 wild-type, read-out: MIC

SMILES	MIC [1, 18] [µM]	MIC [2, 19] [µM]	Relative Fluorescence Index (RFI) [3]	Relative Fluorescence Index (RFI) [4]	Relative Fluorescence Index (RFI) [5]	Relative Fluorescence Index (RFI) [6]	MIC [7, 20] [µM]	IC50 ([8]; Homo sapiens, MRC5, 24 h) [µM]	IC50 ([8]; 24 h) [µM]	Relative Fluorescence Index (RFI) [9]	Relative Fluorescence Index (RFI) [10]	MIC [12] [µM]	MIC [13] [µM]	further results
N#CCC[Se]C(=O)c1cccc(C(=O)[Se]CC#N)c1 [Se-C2]	50 (≈ 19.2 µg/mL)	6.25 (≈ 2.4 µg/mL)	−0.10	0.03	0.09	0.25	25 (≈ 9.6 µg/mL)	> 75	> 100	−0.13	0.08	–	–	–
N#CC[Se]C(=O)c1ccc(C(=O)[Se]CC#N)cc1 [Se-C1]	50 (≈ 18.5 µg/mL)	6.25 (≈ 2.31 µg/mL)	−0.08	0.06	0.04	0.13	25 (≈ 9.25 µg/mL)	> 75	> 100	−0.15	0.14	–	–	Biofilm inhibition [11]: 43.7% and ~50%
CC(=O)C[Se]C(=O)c1cc(C(=O)[Se]CC(C)=O)cc(C(=O)[Se]CC(C)=O)c1 [Se-K3]	0.78 (≈ 0.442 µg/mL)	0.39 (≈ 0.221 µg/mL)	−0.20	0.08	0.28	0.44	50 (≈ 28.4 µg/mL)	0.74	–	−0.18	0.16	25 (≈ 14.2 µg/mL)	25 (≈ 14.2 µg/mL)	MIC [2]: 0.39 µM (≈ 0.221 µg/mL); Anti-biofilm effect (in words) [11]: most effective anti-biofilm agent; Biofilm inhibition [11]: 84.7%; Intracellular EB accumulation (in words) [6]: significant EB accumulation
O=C(O)c1cn(C2CC2)c2cc(N3CCNCC3)c(F)cc2c1=O [CIP, ciprofloxacin-hydrochloride, reference compound]	–	–	–	–	–	–	–	–	–	–	–	–	–	MIC of the antibiotic alone [14]: 33.99 µM; MIC of the antibiotic alone [15]: 1.06 µM
N#CC(C#N)=NNc1cccc(Cl)c1 [CCCP, carbonyl cyanide m-chlorophenyl hydrazone, reference compound]	–	–	3.50	2.46	1.81	1.32	–	–	–	–	0.52	–	–	–
N#CC[Se]C(=O)c1cc(C(=O)[Se]CC#N)cc(C(=O)[Se]CC#N)c1 [Se-C3]	–	1.56 (≈ 0.805 µg/mL)	−0.07	−0.02	0.08	0.06	–	> 75	> 100	−0.05	0.18	12.5 (≈ 6.45 µg/mL)	12.5 (≈ 6.45 µg/mL)	MIC ([1]; MRSA): 12.5 µM (≈ 6.45 µg/mL); MIC fold higher than the methylketone selenoester [2]: 4 fold; MIC ([7]; TYPHIMURIUM): 12.5 µM (≈ 6.45 µg/mL); MIC [16]: 25 µM (≈ 12.9 µg/mL)
CN(C)[C@@H]1C(O)=C(C(N)=O)C(=O)[C@@]2(O)C(O)=C3C(=O)c4c(O)cccc4[C@@](C)(O)[C@H]3C[C@@H]12 [TET, tetracycline-hydrochloride, reference compound]	–	–	–	–	–	–	–	–	–	–	–	–	–	MIC of the antibiotic alone [14]: 14.06 µM; MIC of the antibiotic alone [15]: 0.88 µM
COC(=O)C[Se]C(=O)c1cccc(C(=O)[Se]CC(=O)OC)c1 [Se-E2]	100 (≈ 43.6 µg/mL)	12.5 (≈ 5.45 µg/mL)	0.09	0.70	0.56	0.59	> 100	> 75	> 100	0.33	0.67	> 100	> 100	MIC [2]: 12.5 µM (≈ 5.45 µg/mL); Intracellular EB accumulation (in words) ([4]; S. Typhimurium SE02, 60 min): significantly increased; Intracellular EB accumulation (in words) ([5]; S. Typhimurium SE03, 60 min): significantly increased; Intracellular EB accumulation (in words) [6]: significantly increased; MIC [16]: > 100 µM; EPI activity (in words) ([9]; resistant S. aureus MRSA, 60 min): effective; EPI activity (in words) ([10]; reference (sensitive) S. aureus, 60 min): effective
CC(CN1c2ccccc2Sc2ccccc21)N(C)C (stereo not drawn) [Promethazine, promethazine, reference compound]	–	–	–	–	–	–	–	–	–	–	–	–	–	QS zone of inhibition [17]: 46 mm
